According to publication PMC8380212, “^18F-labeled tracers targeting fibroblast activation protein” (EJNMMI Radiopharmacy and Chemistry, 2021):

Experiments:
[1] = test system: HT-1080-FAP xenografts; assay: Organ distribution (biodistribution) study; format: in vivo, BALB/c nu/nu mice
Method: Eight-week-old BALB/c nu/nu mice (Charles River) were subcutaneously inoculated with 5 × 10^6 HT-1080-FAP cells. The subcutaneous xenografts were grown at the flanks of the mice. Xenografts were grown to a tumor diameter of 10–15 mm. Mice were anesthetized using isoflurane inhalation. 5–10 MBq of the [^18F]AlF-labeled compounds/ the respective tracer (FAPI-42/52/74/75/76; approx. 0.5 nmol; Am approximately 10–20 GBq/µmol) were injected intravenously for PET imaging. In vivo competition (blocking) experiments with ^68 Ga-FAPI-74 (9 MBq; 18.2 GBq/µmol) were performed by adding 30 nmol of unlabeled FAPI-74 to the injection solution. Images were acquired using a small-animal PET scanner (Inveon, Siemens). Within the first 60 min p.i., a dynamic scan was performed in list mode, followed by a static scan from 120–140 min post injection. Images were reconstructed iteratively using the 3D-OSEM + MAP method (Siemens) and were converted to standardized uptake value (SUV). For the dynamic analysis, 28 frames were reconstructed. Quantification was based on ROI analysis and expressed as SUV.
To reduce radiation exposure, the organ distribution study was performed with 1 MBq per animal. […] The radioactivity was measured using a γ-counter (Packard Cobra II Autogamma, GMI Inc., USA) and expressed as percentage of injected dose per gram of tissue (%ID/g). […]

[2] = Determination of logD values (1-octanol / PBS); format: physicochemical; settings: 1-octanol / phosphate buffered saline, pH 7.4; radiolabeled tracer detected by radioactivity in 1-octanol and phosphate buffered saline
Method: All experiments for the determination of logD values were performed in triplicate. For the determination by means of radioactivity, around 5 × 10^6 cpm in ca. 1 µL of radioactive stock solutions (water/acetonitrile 1:1) were added to 100 µL phosphate buffered saline (PBS, pH 7.4) and 100 µL of 1-octanol. The mixture was vortexed for 1 min, followed by 5 min of centrifugation for phase separation. A sample of each phase (10 or 50 µL) was measured for radioactivity per volume (Packard Cobra II Autogamma, GMI Inc., USA). In case of FAPI-72 and -73, the reference compounds [^19F]-FAPI-72 and -73 were dissolved in PBS at a concentration of 1 mg/mL. 50 µL of these solutions were each mixed with 50 µL 1-octanol and processed by vortexing and centrifugation as described above. 1 µL of each phase was analyzed by HPLC and the individual content of compound was determined by peak integration. The area under the peaks of the individual runs was used to calculate the log D value.
Fig. 1 Overview of the synthesized precursors discussed in this study. The corresponding log D values were determined by detection of the radiolabeled tracer in 1-octanol and phosphate buffered saline (pH 7). For values labeled with an asterix, the log D was calculated from the relative content of the non-radioactive reference standards in the 1-octanol and the water phase by HPLC analysis and peak integration TEXT PRINTED IN THE PICTURE: FAPI-42: LOG D: -1.63±0.06 | FAPI-52: LOG D: -1.90±0.02 | FAPI-72: LOG D: 1.20±0.01* | FAPI-73: LOG D: 1.13±0.05* | FAPI-74: LOG D: -2.42±0.03 | FAPI-75: LOG D: -3.36±0.12 | FAPI-76: LOG D: -2.86±0.07

[3] = test system: wild type HT1080 cells; assay: In vitro binding on wild type HT1080 cells (negative control); format: cell-based
Method: The binding properties of the FAPI derivatives were evaluated using the FAP‐transfected HT‐1080‐FAP and CD26 expressing HEK-CD26 cells. All cells were cultivated in Dulbecco's modified Eagle's medium (DMEM) containing 10% fetal calf serum (FCS) at 37 °C/5% carbon dioxide. Cells were seeded in 6-well plates and cultivated to a final confluence of approximately 80–90% (1.2 to 2.0 × 10^6 cells/well). After washing with FCS free medium, for each well ca. 3 kBq of the radiolabeled compound (10–20 GBq/µmol for [^18F]AlF-labeling) was added to the cells in FCS free medium. On completion of the individual incubation time, cells were washed with PBS and treated with 1.4 mL lysis buffer (0.3 m NaOH, 0.2% SDS) before being transferred to measuring tubes. Competition experiments were performed by co-incubation with the unlabeled precursor for 60 min. Radioactivity was determined in a Wizard Gamma Counter (Perkin Elmer), normalized to 10^6 cells and calculated as percentage of the applied dose (%AD). Each experiment was performed in triplicate.
Table 1 summarizes the uptake and EC50 values of the discussed ^18F-labeled FAPI derivatives using the FAP-transfected cell line HT-1080-FAP. Additionally, the lead candidates FAPI-74 to -76 were tested on HEK-CD26 as well as -74 and -75 on wild type HT1080 cells as negative control. […] For FAPI-74, a plateau was already reached after approximately 10 min with 27.2 ± 0.88%AD/10^6cells. […] The EC50 values were all in the low to sub-nanomolar range. Only a neglectable fraction of FAPIs 74–76 were detected on HEK-CD26 cells (0.18–0.24%) as well as on wildtype HT1080 in case of -74 and 75 (< 0.1%).

tumor uptake ([1]; after 30 min, HT-1080-FAP bearing Balb/c nu/nu mice): 6.9 %ID/g
early tumor uptake ([1]; early, discussion): approximately 7 %ID/g
logD [2]: -2.42 ± 0.03
SMILES: N#C[C@@H]1CCCN1C(=O)CNC(=O)c1ccnc2ccc(OCCCN3CCN(C(=O)CN4CCN(CC(=O)O)CCN(CC(=O)O)CC4)CC3)cc12 [FAPI-74]
uptake WT ([3]; wild type HT1080 control cells): 0.07 ± 0.03 %AD/10^6 cells
fraction detected on wildtype HT1080 ([3]; wildtype HT1080, text): < 0.1%
